Data as given in patent US6541509B2 (priority 2000, dated 2003).
Where two headings read alike, the source gives them in different places.

Experiments:
A549-T12 cells [1] = assay type: cell-based, human; details: 48 h
Procedure: A549-T12 cells were grown on cover slips and treated with the different compounds for 48 h. Cells were then permeabilized, fixed, and incubated with an α-tubulin antibody, as described below.
A549-T12 cells, which were grown to subconfluency on glass cover slips in the absence of drug or in the presence of different drugs at varying concentrations (FIG. 4), were prepared for immunofluorescence microscopy as previously described, with the following modifications: (a) nonspecific binding was blocked using 10% normal goat serum in PBS for 30 min at 37° C.; (b) cells were incubated with a monoclonal antibody to α-tubulin (Sigma; 1:100 dilution; 5% normal goat serum in PBS), followed by a Cy3-conjugated anti-mouse IgG secondary antibody (Amersham, Arlington Heights, Ill.; 1:1000 dilution); and (c) slides were analyzed using the Zeiss Axioskop microscope (rhodamine filter) at 63× magnification.

A549-T12 cells [2] = assay type: cell-based, human
Procedure: Cells were incubated with the different agents for 48 h, fixed, stained with propidium iodide, and analyzed by flow cytometry, as described below.
For the drug substitution experiments, A549-T12 cells were seeded at a density of 3×10^4 cells/mL in 75-cm^2 flasks, and treated with various drugs at the indicated concentrations (FIG. 5). After 48 h, both adherent and nonadherent cells were harvested, fixed in 70% ethanol for at least 20 min, permeabilized with 0.1% Triton X-100 in PBS for 3 min, and stained for 30 min at 37° C. with 10 μg/mL of propidium iodide (Sigma) in a PBS solution containing 1 μg/mL of RNase A (Boehringer Mannheim, Indianapolis, Ind.). Cell-cycle analysis was performed using the Becton Dickinson FACScan and the CellQuest program. […] The cells then were prepared as described above.

J7-T3-1.6 = assay: cells; assay type: cell-based, mouse; details: for Fold resistance (ratio of IC50 J7-T3-1.6 to J774.2): after 72 h
Procedure: (§1) The drug-sensitive mouse macrophage-like cell line, J774.2, and its Taxol-resistant cell line, J7-T3-1.6, were maintained as previously described. […] Drug-sensitive and vinblastine-resistant human ovarian carcinoma cell lines, SKOV3 and SKVLB, were obtained from Dr. V. Ling, and were maintained as previously described. Both J7-T3-1.6 and SKVLB cells overexpress P-glycoprotein. SKVLB cells were grown in the presence of 1 μM vinblastine. The Taxol-resistant human non-small-cell lung carcinoma cell line, A549-T12, was derived from the drug-sensitive A549 cell line; both cell lines were maintained as previously described.
(§2) For the A549 cell lines, cells were seeded at a density of 1×10^4 cells/mL (A549) or 3×10^4 cells/mL (A549-T12), in triplicate, 6-well plates, and allowed to attach for 24 h. […] The SKOV3 and SKVLB cell lines were assayed in a similar manner. Cells were seeded in triplicate, at a density of 6×10^3 cells/mL (SKOV3) or 12×10^3 cells/mL (SKVLB), in 6-well plates, and incubated with a drug for 6 days. […] J774.2 and J7-T3-1.6 cells were plated at a density of 2×10^4 cells/well, in 96-well plates, and allowed to attach overnight. Serial dilutions of each drug were performed, and the cells were incubated for 72 h. The IC50 was determined using the CellTiter 96™ AQueous nonradioactive cell proliferation assay (Promega, Madison, Wis.), which correlates with the number of live cells. Different methods for determining IC50 values were used, depending on the most accurate method for each particular set of cell lines.

J774.2 = assay: cells; assay type: cell-based, mouse; details: Mus musculus; J774.2, 72 h, mean ± SE; read-out: IC50 (drug concentration that inhibits cell division by 50%)
Procedure: as §1, §2

[3] = literature [13], [16]; discodermolide value predicted; cited from earlier work
SKOV3 = assay: cells; assay type: cell-based, human; details: SKOV3, 6 days, mean ± SE
Procedure: as §1, §2

A549-T12 = assay: cells; assay type: cell-based, human; details: for Fold resistance (ratio of IC50 A549-T12 to A549): 72 h
Procedure: as §1, §2

SKVLB = assay: cells; assay type: cell-based, human; details: for Fold resistance (ratio of IC50, SKVLB and SKOV3): after 6 days
Procedure: as §1, §2

A549 = assay: cells; assay type: cell-based, human; details: A549, 72 h, mean ± SE
Procedure: as §1, §2

A549-T12 cells [4] = assay: Drug combination assay (colorimetric proliferation assay), Taxol titrated with test drug; assay type: cell-based, human; details: 72 h
Procedure: For the drug combination assay, the cells were analyzed after 72 h using a cell proliferation assay, as described below. A: cytotoxicity curves of A549-T12 cells in the absence of Taxol or in the presence of Taxol (in various concentrations), in combination with a range of discodermolide concentrations; B-D: cytotoxicity curves of A549-T12 cells in the absence or presence of 2 nM Taxol, in combination with eleutherobin or the epothilones. —⬭—: no Taxol; ---⬬----: 2 nM Taxol.
For the drug combination assay, A549-T12 cells were seeded in triplicate, at a density of 4×10^4 cells/mL, in 96-well plates, in the absence of Taxol or in the presence of various concentrations of Taxol, in combination with serial dilutions of each test drug. After a 72-h incubation, the plates were assayed using the colorimetric proliferation assay. In order to sustain the growth of A549-T12 cells in the absence of Taxol, cells were seeded at the higher densities described above.

microtubules = assay: In vitro microtubule polymerization assay; assay type: biochemical; details: in the absence of GTP
P-glycoprotein = assay: Steady-state accumulation of [3H]Taxol; assay type: cell-based; details: Taxol-resistant murine cell line; data not shown

## C=C/C=C\[C@H](C)[C@H](OC(N)=O)[C@@H](C)[C@H](O)[C@@H](C)C/C(C)=C\[C@H](C)[C@@H](O)[C@@H](C)/C=C\[C@@H](O)C[C@@H]1OC(=O)[C@H](C)[C@@H](O)[C@H]1C [Disco, discodermolide]
A549-T12 cells [1]
  Concentration at which microtubules became arranged in bundle-like formations at the periphery of the cell: ≥ 12 nM
A549-T12 cells [1]; concentrations as in FIG. 4
  Microtubule cytoskeleton / ability to substitute for Taxol: Neither discodermolide nor vinblastine was able to substitute for Taxol
A549-T12 cells [2]; 48 h, 2 nM Taxol, discodermolide 2 or 6 nM, other drugs as in FIG. 5
  Cell-cycle profile: did not prevent the development of a G2-M-phase block
A549-T12 cells [2]; 48 h without Taxol, then 48 h with drug, discodermolide 0.001-24.0 nM, data not shown
  Reversal of the G2-M-phase block induced by Taxol removal: irreversible
A549-T12 cells [2]; discodermolide 0.001-1.0 nM
  Cell-cycle profile: G2-M-phase block
A549-T12 cells [2]; discodermolide 12-24 nM
  Cell-cycle profile: substantial increase in the hypodiploid population
J7-T3-1.6; Mus musculus, J7-T3-1.6, 72 h, mean ± SE, read-out: IC50 (drug concentration that inhibits cell division by 50%)
  IC50: 1050 nM
J7-T3-1.6
  Fold resistance (ratio of IC50 J7-T3-1.6 to J774.2): 29.2 fold
J7-T3-1.6; listed as discodermolide
  Fold resistance (ratio of IC50 J7-T3-1.6 to J774.2): low resistance
J774.2
  IC50: 36 ± 5.5 nM
[3]
  Solubility relative to Taxol: 100 times more soluble than Taxol
SKOV3; Homo sapiens, SK-OV-3, 144 h, read-out: IC50 (drug concentration that inhibits cell division by 50%)
  IC50: 9.7 ± 0.3 nM
SKOV3
  IC50 (drug concentration that inhibits cell division by 50%): decreased but similar responses
A549-T12
  Fold resistance (ratio of IC50 A549-T12 to A549): 0.8 fold
A549-T12; listed as discodermolide
  Fold resistance (ratio of IC50 A549-T12 to A549): no cross-resistance
A549-T12; Homo sapiens, A549-T12, 72 h, cells maintained in 2 nM Taxol, mean ± SE, read-out: IC50 (drug concentration that inhibits cell division by 50%)
  IC50: 6.5 ± 2.4 nM
SKVLB; Homo sapiens, Ovarian carcinoma cell, 144 h, SKVLB, 6 days, mean ± SE, read-out: IC50 (drug concentration that inhibits cell division by 50%)
  IC50: 575 ± 233 nM
SKVLB
  Fold resistance (ratio of IC50, SKVLB and SKOV3): 59.3 fold
SKVLB; listed as discodermolide
  Fold resistance (ratio of IC50, SKVLB and SKOV3): low-level cross-resistance
A549
  IC50 (drug concentration that inhibits cell division by 50%): comparable activities
A549; Homo sapiens, read-out: IC50 (drug concentration that inhibits cell division by 50%)
  IC50: 8.1 ± 0.14 nM
A549-T12 cells [4]; Taxol titrated with a range of discodermolide concentrations
  Taxol concentration at which the potency of discodermolide was maximal: 2 nM
A549-T12 cells [4]; absence vs presence of 2 nM Taxol
  Loss of sensitivity of A549-T12 cells to the drug in the absence of 2 nM Taxol: 20 fold
microtubules
  Assembly of microtubules: enhanced the assembly of stable microtubules
P-glycoprotein
  Substrate for P-glycoprotein: not substrates for P-glycoprotein
